Data as given in patent US4855426A, “Process of preparing 1,5-epoxy-2,3,4,5-tetrahydro-1H-3-benzazepins” (Ortho Pharmaceutical Corporation, priority 1988, dated 1989).
Where a name gives a salt, the structure may show the parent alone. Read-outs that look alike come from different tables or passages of the source. Blank lines part the entries; values can stand above or below the molecule they belong to.

Key:
acid output = experiment: Gastric Secretion, inhibition of acid output in pylorus ligated rats; format: in vivo, male Charles River Sprague Dawley derived rats; conditions: Rattus norvegicus, 4 h, intraduodenal, four hours
Method: (§1) The inhibitory activity of the compounds on acid output was tested using pylorus ligation in a modification of the procedure of Shay, H., et al., Gastroenterology 26, 906 (1954). Basically, male Charles River Sprague Dawley derived rats weighing 150-300 grams were deprived of food but not water for 18-24 hours prior to use. Water was withheld during the experiment, however. The rats were weighed, anesthetized with ether and the pylorus ligated according to the method of Shay et al., supra. Treatment or vehicle control was then administered intraduodenally (i.d.). Rats were housed two/cage and sacrificed with CO2 four hours after ligation. The stomachs were removed, rinsed, and contents emptied into a graduated centrifuge tube. The tubes were centrifuged, the volume of gastric juice recorded, and any samples obviously contaminated by feces, food or blood were eliminated. A 1 ml aliquot of gastric juice was titrated with 0.1N NaOH to a pH of 7.0-7.4. The volume of gastric juice secreted, the acid concentration, and the product of the volume times the concentration, i.e., the total amount of acid secreted, were measured.

parietal cells = experiment: Isolated Parietal Cell Assay, 14C-aminopyrine accumulation in histamine stimulated parietal cells; format: cell-based, rabbit; conditions: Oryctolagus cuniculus, 20 min, read-out: IC50, inhibition of 14C-AP accumulation in the histamine stimulated parietal cell
Method: The isolated parietal cell assay was conducted using the procedures of Batzri, S., et al., Biochemica et Biophysica Acta 508, 328 (1978) and Soll, A. H., Am. J. Physiol. 238, G366 (1980). Basically, parietal cells were isolated from the fundic mucosa of rabbit stomachs by a four-stage collagenase digestion process. The supernatant fraction from the last two stages of this process contain the individual parietal cells. This cell suspension was centrifuged and reconstituted in a modified Hank's buffer to contain 2-3×10^6 cells/ml. […] The accumulation was stimulated by histamine and was blocked by H2 antagonists. The cells were incubated with 0.5×10^6 cpm ^14 C-AP, with various concentrations of histamine, 1×10^-5 M isobutylmethylxanthine, and the test compound added in a 20 μl volume of buffer or DMSO. The flasks were incubated in a shaking water bath at 37° C. for 20 minutes. Two aliquots were then taken from each flask and cell pellets were collected by centrifugation. The pellets were solubilized with Protosol (New England Nuclear) and radioactivity determined by liquid scintillation spectrometry. Data is presented as the IC50, the concentration of compound required to inhibit ^14 C-AP accumulation in the histamine stimulated parietal cell by 50%.

Pepsin = experiment: In Vivo Pepsin Assay, radioenzymatic, gastric juice of pylorus ligated rat
Method: as §1
Pepsin activity was measured by a radioenzymatic assay. An aliquot of a 1:1000 dilution of rat gastric juice was incubated with the substrate solution (containing methyl-^14 C-methylated methemoglobin and nonradioactive methemoglobin in 10 mM sodium citrate buffer, pH 3.0) for a period of ten minutes at 37° C. After this time, trichloroacetic acid was added to stop the reaction and to precipitate the unreacted substrate. After removal of the precipitate by centrifugation, an aliquot of the supernatant fraction is quantitated for radioactivity by liquid scintillation spectrometry. Rat gastric juice samples were obtained after drug administration in the pylorus ligated rat (Example 42). Data is presented as the percent inhibition of pepsin activity in drug treated gastric samples compared to enzyme activity observed for control gastric juice samples. […]

Lesions = experiment: Cytoprotection, ethanol (necrotizing agent) induced lesions in rats; format: in vivo, male Charles River Sprague Dawley derived rats; conditions: oral, 50% EtOH one hour later
Method: The cytoprotective activity of the compounds was tested using a modification of the method of Robert, A., et al., Gastroenterology 77, 433 (1979). Basically, male Charles River Sprague Dawley derived rats weighing between 140 and 220 g were fasted overnight, but allowed water ad libitum. They were deprived of water during the experiment, however. The rats were weighed and pretreated orally with the test compound in a dose volume of 1 ml/kg. One hour later, the necrotizing agent was administered orally, usually 50% EtOH, in a dose volume of 1 ml/animal. After an additional hour, the rats were sacrificed with CO2, the stomachs removed, inflated with distilled water, opened along the greater curvature and laid out on a flat surface. The presence of mucosal bleeding and incidence of lesions were noted, and after wiping off the mucosa the presence of submucosal bleeding and incidence of lesions were also noted.

Gastric Secretion = experiment: Gastric Secretion, betazole stimulated, dogs with total gastric fistulas; format: in vivo, Female dogs; conditions: gastric fistula dogs
Description: This is a secondary test used to follow-up compounds which have shown gastric antisecretory activity in the four-hour pylorus ligated rat (Example 42). Female dogs were surgically prepared with total gastric fistulas and allowed to recover.

[1] = rabbit parietal cells, 37° C., 20 minutes, 1×10^-5 M isobutylmethylxanthine

Structure (SMILES): c1ccc(C23CNCC(O2)c2ccccc23)cc1 (stereo not shown) [Example 7, 1,5-Epoxy-1-phenyl-1,2,4,5-tetrahydro-3-benzazepin]
inhibition in vivo at 50 mg/kg (acid output): 68%

Structure (SMILES): c1ccc2c(c1)C1CN(CCCN3CCOCC3)CC2O1 [Example 22, 1,5-Epoxy-3-[N-(3-morpholinopropyl)]-1,2,4,5-tetrahydro-3-benzazepin dioxalate]
inhibition in vivo at 50 mg/kg (acid output): 33%

IC50 (parietal cells; [1]): 3.5 µM
Structure (SMILES): c1ccc(C23CN(CCCOc4cccc(CN5CCCCC5)c4)CC(O2)c2ccccc23)cc1 (stereo not shown) [Example 11, 3-[3-[[3-(1-Piperidinyl)methyl]methyl]phenoxy]propyl]-1,5-epoxy-1-phenyl-1,2,4,5-tetrahydro-3-benzazepin dioxalate hemihydrate]
% Inhibition of Pepsin Activity (Pepsin; 40 mg/kg): 30%
inhibition in vivo at 40 mg/kg (acid output): 39%
% Inhibition of Lesions, Mucosa (Lesions; 40 mg/kg): 80%
% Inhibition of Lesions, Submucosa (Lesions; 40 mg/kg): 100%

Structure (SMILES): c1ccc(CN2CC3OC(C2)c2ccccc23)cc1 [Example 18, 3-Benzyl-1,5-epoxy-1,2,4,5-tetrahydro-3-benzazepin oxalate]
inhibition in vivo at 50 mg/kg (acid output): 23%

IC50 (parietal cells; [1]): 30 µM
Structure (SMILES): COc1cc2c(cc1OC)C1CN(CCSCc3ccc(CN(C)C)o3)CC2O1 [Example 36, 3-[2-[[[5-(Dimethylamino)methyl-2-furanyl]methylthio]ethyl]-1,5-epoxy-7,8-dimethoxy-1,2,4,5-tetrahydro-3-benzazepin dioxalate monohydrate]
inhibition in vivo at 20 mg/kg (acid output): 26%

Structure (SMILES): FC(F)(F)c1cccc(C23CN(CCCN4CCOCC4)CC(O2)c2ccccc23)c1 (stereo not shown) [Example 3, 1,5-Epoxy-3-[N-(3-morpholinopropyl)-1-[(3-trifluoromethyl)phenyl]-1,2,4,5-tetrahydro-3-benzazepin dioxalate]
inhibition in vivo at 25 mg/kg (acid output): 48%

IC50 (parietal cells; [1]): 4.5 µM
Structure (SMILES): FC(F)(F)c1cccc(C23CN(CCCOc4cccc(CN5CCCCC5)c4)CC(O2)c2ccccc23)c1 (stereo not shown) [Example 4, 3-[3-[[3-(1-Piperidinyl)methyl]phenoxy]propyl]-1,5-epoxy-1-(3-trifluoromethyl)phenyl-1,2,4,5-tetrahydro-3-benzazepin dioxalate monohydrate]
% Inhibition of Pepsin Activity (Pepsin; 40 mg/kg): 52%
inhibition in vivo at 40 mg/kg (acid output): 46%
% Inhibition of Gastric Secretion (Gastric Secretion; 7.3 mg/kg (iv)): 85%
% Inhibition of Gastric Secretion (Gastric Secretion; 20 mg/kg (ig)): 48%
% Inhibition of Lesions, Mucosa (Lesions; 10 mg/kg): 70%
% Inhibition of Lesions, Submucosa (Lesions; 10 mg/kg): 80%
% Inhibition of Lesions, Mucosa (Lesions; 20 mg/kg): 88%
% Inhibition of Lesions, Submucosa (Lesions; 20 mg/kg): 100%

Structure (SMILES): FC(F)(F)c1cccc(C23CNCC(O2)c2ccccc23)c1 (stereo not shown) [Example 2, 1,5-Epoxy-1-[(3-trifluoromethyl)phenyl]-1,2,4,5-tetrahydro-3-benzazepin oxalate]
IC50 (parietal cells): 3.5 µM
inhibition in vivo at 25 mg/kg (acid output): 71%
% Inhibition of Gastric Secretion (Gastric Secretion; 2 mg/kg (ig)): 53%
% Inhibition of Gastric Secretion (Gastric Secretion; 40 mg/kg (route not given)): 75%
% Inhibition of Lesions, Mucosa (Lesions; 25 mg/kg): 56%
% Inhibition of Lesions, Submucosa (Lesions; 25 mg/kg): 56%

Structure (SMILES): Clc1ccc2c(c1)C1CNCC2O1 (stereo not shown) [Example 14, 7-Chloro-1,5-epoxy-1,2,4,5-tetrahydro-3-benzazepin oxalate.1/4H2 O]
inhibition in vivo at 50 mg/kg (acid output): 40%

Structure (SMILES): C=CCN1CC2OC(C1)c1cc(Cl)ccc12 (stereo not shown) [Example 13, 3-Allyl-7-chloro-1,5-epoxy-1,2,4,5-tetrahydro-3-benzazepin oxalate.1/4H2 O]
inhibition in vivo at 50 mg/kg (acid output): 33%

IC50 (parietal cells; [1]): 1 to 1.3 µM
Structure (SMILES): CN(C)Cc1ccc(CSCCN2CC3OC(c4cccc(C(F)(F)F)c4)(C2)c2ccccc23)o1 (stereo not shown) [Example 5, 3-[2-[[[5-(Dimethylamino)methyl-2-furanyl]methylthio]ethyl]-1,5-epoxy-1-[3-trifluoromethyl)phenyl-1,2,4,5-tetrahydro-3-benzazepin dioxalate]
% Inhibition of Pepsin Activity (Pepsin; 20 mg/kg): 28-43%
inhibition in vivo at 20 mg/kg (acid output): 46%
% Inhibition of Lesions, Mucosa (Lesions; 10 mg/kg): 10%
% Inhibition of Lesions, Submucosa (Lesions; 10 mg/kg): 30%

IC50 (parietal cells; [1]): 0.25 to 0.37 µM
Structure (SMILES): CN(C)Cc1ccc(CSCCN2CC3OC(c4ccccc4)(C2)c2ccccc23)o1 (stereo not shown) [Example 12, 3-[2-[[[5-(Dimethylamino)methyl-2-furanyl]methylthio]ethyl]-1,5-epoxy-1-phenyl-1,2,4,5-tetrahydro-3-benzazepin dioxalate hemihydrate]
% Inhibition of Lesions, Mucosa (Lesions; 10 mg/kg): 20%
% Inhibition of Lesions, Submucosa (Lesions; 10 mg/kg): 11%

Structure (SMILES): c1ccc2c(c1)C1CNCC2(C2OCCO2)O1 (stereo not shown) [Example 30, 1-(1,3-Dioxolan-2-yl)-1,5-epoxy-1,2,4,5-tetrahydro-3-benzazepin]
inhibition in vivo at 50 mg/kg (acid output): 23%
